According to patent US20160199491A1, “Compounds compositions and methods including thermally labile moieties” (Biosearch Technologies, Inc., priority 2014, published 2016):

Experiment: Deprotection of a Boc-protected PCR primer at 94° C. in water, PCR buffer or TEAA, tracked by reverse-phase HPLC and mass spec
Type: physicochemical
Experimental: The RNaseP forward primer 19-mer [AGATTTGGACCTGCGAGCG](SEQ ID NO: 1) was synthesized on Boc-dG CPG (1 μmol) with Boc dA, dC, and dG amidites. The fully deprotected mass for this primer is 5868 g/mol and the expected mass for Boc protection is […] [15 Boc residues.100 amu/Boc=1500 added]. Deprotection of side chain protecting groups was performed with 25% 2-methoxyethylamine in methanol (1 mL) for 3 hrs at room temp, remove CPG and evaporate to dryness, re-dissolve in DI water (1 mL). The DMT was […] because the Boc group can be used as a hydrophobic handle. The product was desalted with 20-50 micron polystyrene beads packed in a 1 mL cartridge and eluted in 20% ACN/H2O.
The desalted Boc-primer was aliquoted into three microfuge tubes of 100 uL each. The samples were dried down and brought up in 1 mL of house DI water. Only water was added to the first tube. To the second tube 1 mL of PCR buffer pH 8.5, 1× with MgCl2, was added to a final concentration of 6 mM (standard PCR concentrations). To the third tube TEAA was added to give a final concentration of 0.025 N. Each of the three samples was aliquoted into ten 200 uL thin-walled PCR tubes for a total of 30 tubes. All primer preparation was done at room temperature.
An ABI 9700 Thermocycler was preheated to 94° C. Each sample was placed into the heat block and removed at the time point and placed on dry ice to stop the reaction. As a negative control, the T=0 sample was not heated and placed directly in ice at the beginning of the experiment. The samples were allowed to thaw at room temperature and transferred to a 96-well plate for HPLC and mass spectroscopy analysis.
For each time point, reverse-phase and mass spec data were acquired to track the removal of the Boc protecting group. The Boc protected primer is not a single species but rather a collection at various stages of protection.

Boc-primer: RNaseP forward primer 19-mer [AGATTTGGACCTGCGAGCG] (SEQ ID NO: 1) synthesized with Boc dA, dC, and dG amidites (listed as DNA, chemistry not fully specified)
deprotection after 10 minutes under normal PCR buffering (10 minutes, PCR buffer pH 8.5, 1× with MgCl2 6 mM): deprotected
Boc groups after 10 minutes in TEAA (10 minutes, TEAA 0.025 N): some remained
Boc groups after 10 minutes (10 minutes, samples in water, PCR buffer pH 8.5 with MgCl2 6 mM, TEAA 0.025 N): almost all of the Boc groups were gone
Boc groups after 15 minutes in TEAA (15 minutes, TEAA 0.025 N): all were removed
